Laboratory results reported in US10874646B2, “Epothilone analogs, methods of synthesis, methods of treatment, and drug conjugates thereof” (WILLIAM MARSH RICE UNIVERSITY, priority 2015, dated 2020).
Where two headings read alike, the source gives them in different places.

Experiments:
[1] = tested on: A498; assay: NCI-60 human cancer cell line panel, five dose screen; type: cell-based; settings: NCI-60 five dose screen
Excerpt: (§1) Biological evaluation. The synthesized epothilone analogues were submitted to the NCI for testing against the NCI-60 human cancer cell line panel (Shoemaker, 2006).

[2] = tested on: A549/ATCC; assay: as above; type: cell-based; settings: NCI-60 five dose screen
Excerpt: as §1

[3] = tested on: CCRF-CEM; assay: as above; type: cell-based; settings: NCI-60 five dose screen
Excerpt: as §1

[4] = tested on: COLO 205; assay: as above; type: cell-based; settings: NCI-60 five dose screen
Excerpt: as §1

[5] = tested on: HCT-116; assay: as above; type: cell-based; settings: NCI-60 five dose screen
Excerpt: as §1

[6] = tested on: HCT-15; assay: as above; type: cell-based; settings: NCI-60 five dose screen
Excerpt: as §1

[7] = tested on: HL-60(TB); assay: as above; type: cell-based; settings: NCI-60 five dose screen
Excerpt: as §1

[8] = tested on: HOP-92; assay: as above; type: cell-based; settings: NCI-60 five dose screen
Excerpt: as §1

[9] = tested on: HS 578T; assay: as above; type: cell-based; settings: NCI-60 five dose screen
Excerpt: as §1

[10] = tested on: HT29; assay: as above; type: cell-based; settings: HT-29, NCI-60 five dose screen
Excerpt: as §1

[11] = tested on: K-562; assay: as above; type: cell-based; settings: K562, NCI-60 five dose screen
Excerpt: as §1

[12] = tested on: KM12; assay: as above; type: cell-based; settings: NCI-60 five dose screen
Excerpt: as §1

[13] = tested on: LOX IMVI; assay: as above; type: cell-based; settings: NCI-60 five dose screen
Excerpt: as §1

[14] = tested on: M14; assay: as above; type: cell-based; settings: NCI-60 five dose screen
Excerpt: as §1

[15] = tested on: MCF7; assay: as above; type: cell-based; settings: NCI-60 five dose screen
Excerpt: as §1

[16] = tested on: MDA-MB-435; assay: as above; type: cell-based; settings: NCI-60 five dose screen
Excerpt: as §1

[17] = tested on: MDA-MB-468; assay: as above; type: cell-based; settings: NCI-60 five dose screen
Excerpt: as §1

[18] = tested on: MOLT-4; assay: as above; type: cell-based; settings: NCI-60 five dose screen
Excerpt: as §1

[19] = tested on: NCI-H23; assay: as above; type: cell-based; settings: NCI-60 five dose screen
Excerpt: as §1

[20] = tested on: NCI-H460; assay: as above; type: cell-based; settings: NCI-60 five dose screen
Excerpt: as §1

[21] = tested on: OVCAR-3; assay: as above; type: cell-based; settings: NCI-60 five dose screen
Excerpt: as §1

[22] = tested on: PC-3; assay: as above; type: cell-based; settings: NCI-60 five dose screen
Excerpt: as §1

[23] = tested on: RPMI-8226; assay: as above; type: cell-based; settings: NCI-60 five dose screen
Excerpt: as §1

[24] = tested on: RXF 393; assay: as above; type: cell-based; settings: NCI-60 five dose screen
Excerpt: as §1

[25] = tested on: SF-539; assay: as above; type: cell-based; settings: NCI-60 five dose screen
Excerpt: as §1

[26] = tested on: SK-MEL-5; assay: as above; type: cell-based; settings: NCI-60 five dose screen
Excerpt: as §1

[27] = tested on: SNB-75; assay: as above; type: cell-based; settings: NCI-60 five dose screen
Excerpt: as §1

[28] = tested on: SR; assay: as above; type: cell-based; settings: NCI-60 five dose screen
Excerpt: as §1

[29] = tested on: SW-620; assay: as above; type: cell-based; settings: NCI-60 five dose screen
Excerpt: as §1

[30] = tested on: U251; assay: as above; type: cell-based; settings: U-251, NCI-60 five dose screen
Excerpt: as §1

[31] = tested on: tubulin; assay: Induction/enhancement of tubulin assembly (Lin, et al., 1996); type: biochemical; settings: 10 μM tubulin, 0.4M monosodium glutamate, 30 min at room temperature; Table 2; read-out: induction of tubulin assembly (EC50, μM ± SD)
[32] = tested on: MCF-7; assay: Cytotoxicity, standard NCI assay with sulforhodamine B, 96 h; settings: Homo sapiens, MCF7, 96 h, read-out: cytotoxicity (GI50, nM ± SD) MCF-7
[33] = tested on: OVCAR-8; assay: as above; settings: Homo sapiens, OVCAR-8, 96 h, read-out: cytotoxicity (GI50, nM ± SD) OVCAR-8
[34] = tested on: NCI-60 human cancer cell line panel; assay: NCI-60 initial one dose test; type: cell-based; settings: 10 μM
Excerpt: as §1

Structure (SMILES) | GI50 [1] | GI50 [2] | GI50 [3] | GI50 [4] | GI50 [5] | GI50 [6] | GI50 [7] | GI50 [9] | GI50 [10] | GI50 [11] | GI50 [12] | GI50 [13] | GI50 [14] | GI50 [15] | GI50 [16] | GI50 [17] | GI50 [18] | EC50 [31] | GI50 [32] | GI50 [33] | also measured
C/C(=C\c1ccn(-c2ccccc2N)n1)[C@@H]1C[C@@H]2O[C@]2(C)CCC[C@H](C)[C@H](O)[C@@H](C)C(=O)C(C)(C)[C@@H](O)CC(=O)O1 [Compound 10] | 18.8 nM | 34.5 nM | 22.6 nM | 20.4 nM | 18.3 nM | 32.5 nM | 17.2 nM | 31.6 nM | 18.8 nM | 24.4 nM | 20.6 nM | 31.3 nM | 18 nM | 17.7 nM | 9.56 nM | 23.4 nM | 27.6 nM | 8 ± 1 µM | 5.5 nM | 23 ± 10 nM | GI50 ([8]; read-out: GI50): 80.7 nM; GI50 [19]: 35.8 nM; GI50 [20]: 20.3 nM; GI50 [21]: 18.8 nM; GI50 [22]: 34.3 nM; GI50 [23]: 17.8 nM; GI50 [24]: 39.6 nM; GI50 [25]: 15.8 nM; GI50 [26]: 21.9 nM; GI50 [27]: 16.4 nM; GI50 [28]: 27.4 nM; GI50 [29]: 24.5 nM; GI50 [30]: 30.8 nM
C/C(=C\c1cc(C(F)(F)F)n(-c2ccc(N)cc2)n1)[C@@H]1C[C@@H]2O[C@]2(C)CCC[C@H](C)[C@H](O)[C@@H](C)C(=O)C(C)(C)[C@@H](O)CC(=O)O1 [Compound 9] | 66 nM | 48.8 nM | 47.6 nM | 14.7 nM | 5.31 nM | 22 nM | 7.88 nM | 36.4 nM | 5.29 nM | 15.7 nM | 5.25 nM | 25 nM | 13.7 nM | 3.65 nM | 2.08 nM | 23.1 nM | 48.1 nM | > 40 µM | 900 nM | 300 nM | GI50 ([8]; read-out: GI50): 183 nM; GI50 [19]: 88.5 nM; GI50 [20]: 6.45 nM; GI50 [21]: 15.8 nM; GI50 [22]: 32.2 nM; GI50 [23]: 11.1 nM; GI50 [24]: 40.7 nM; GI50 [25]: 24.8 nM; GI50 [26]: 22.1 nM; GI50 [29]: 5.4 nM; GI50 [30]: 38.1 nM
CSc1cc(/C=C(\C)[C@@H]2C[C@@H]3O[C@]3(C)CCC[C@H](C)[C@H](O)[C@@H](C)C(=O)C(C)(C)[C@@H](O)CC(=O)O2)n(CCNC(=O)OC(C)(C)C)n1 [Compound 5] | – | – | – | – | – | – | – | – | – | – | – | – | – | – | – | – | – | > 40 µM | 1600 nM | 900 nM | activity in initial one dose test [34]: did not exhibit significant activity
C/C(=C\c1cc(C(F)(F)F)nn1CCNC(=O)OCC[Si](C)(C)C)[C@@H]1C[C@@H]2O[C@]2(C)CCC[C@H](C)[C@H](O)[C@@H](C)C(=O)C(C)(C)[C@@H](O)CC(=O)O1 [Compound 7] | – | – | – | – | – | – | – | – | – | – | – | – | – | – | – | – | – | > 40 µM | 1800 nM | 1300 nM | activity in initial one dose test [34]: did not exhibit significant activity
C/C(=C\c1ccn(-c2ccc(N)cc2F)n1)[C@@H]1C[C@@H]2O[C@]2(C)CCC[C@H](C)[C@H](O)[C@@H](C)C(=O)C(C)(C)[C@@H](O)CC(=O)O1 [Compound 14] | 80.2 nM | 37.6 nM | 13.6 nM | 18.2 nM | 17.1 nM | 22.6 nM | 14.1 nM | 37.2 nM | 18.4 nM | 20.7 nM | 17.7 nM | 23.1 nM | 18.7 nM | 14 nM | 8.35 nM | 20.9 nM | 28.3 nM | 19 ± 1 µM | 14 ± 2 nM | 38 ± 10 nM | GI50 ([8]; dash defined by footnote e, read-out: GI50 (symbol)): > 100 nM; GI50 [19]: 24.2 nM; GI50 [20]: 20.8 nM; GI50 [21]: 17.6 nM; GI50 [22]: 25.8 nM; GI50 [23]: 19.6 nM; GI50 [24]: 30.6 nM; GI50 [25]: 26.2 nM; GI50 [26]: 18 nM; GI50 [27]: 11.7 nM; GI50 [28]: 29.2 nM; GI50 [29]: 23.6 nM; GI50 [30]: 36.2 nM
